From US20110178396A1, “Nicotinamide Derivatives” (CRC FOR BIOMEDICAL IMAGING DEVELOPMENT LTD., priority 2008, published 2011)

How the values were obtained:
[1] = HPLC metabolite analysis in plasma, tumour, eye and urine; assay type: in vivo; conditions: for Percentage Unchanged Tracer: HPLC
[2] = tested on: B16F0 melanoma tumour; assay: Biodistribution in B16 melanoma bearing mice; assay type: in vivo, C57BL/6J mice; conditions: B16 melanoma bearing mice
Method in brief: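 B16F0 tumours in C57BL/6J mice (day 11) and A375 xenografts in BALB/c nude mice (day 25), subcutaneous left flank. Radiotracer given i.v. by tail vein (18F 0.5–1.5 MBq; 123I 0.37–0.74 MBq); n=5 per time point, 15 min–6 h (18F) or 1–72 h (123I). Organs γ-counted as % ID/g.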

CCN(CC)CCNC(=O)c1ccc(F)nc1 [[^18F]MEL2, 6-Fluoro-N-[2-(diethylamino)ethyl]nicotinamide]
Percentage Unchanged Tracer ([1]; Eye, 15 minutes): 100% | Percentage Unchanged Tracer ([1]; Eye, 60 minutes): 96% | Percentage Unchanged Tracer ([1]; Eye, 120 minutes): 99% | form of activity taken up in the tumour and eye ([1]; HPLC analysis at various time points): unchanged [^18F]MEL2 and not metabolites | form excreted in urine ([1]; HPLC analysis, all time points studied): excreted predominately as the unchanged radiotracer | Percentage Unchanged Tracer ([1]; Plasma, 15 minutes): 85% | Percentage Unchanged Tracer ([1]; Plasma, 60 minutes): 79% | Percentage Unchanged Tracer ([1]; Plasma, 120 minutes): 63% | Percentage Unchanged Tracer ([1]; Tumour, 15 minutes): 100% | Percentage Unchanged Tracer ([1]; Tumour, 60 minutes): 100% | Percentage Unchanged Tracer ([1]; Tumour, 120 minutes): 98% | Percentage Unchanged Tracer ([1]; Urine, 60 minutes): 90% | Percentage Unchanged Tracer ([1]; Urine, 120 minutes): 87% | uptake BLOOD ([2]; 15 min): 2.048 % ID/g | uptake BONE ([2]; 15 min): 3.493 % ID/g | uptake BRAIN ([2]; 15 min): 2.471 % ID/g | uptake EYES ([2]; 15 min): 14.678 % ID/g | uptake GIT ([2]; 15 min): 5.421 % ID/g | uptake HEART ([2]; 15 min): 3.153 % ID/g | uptake KIDNEY ([2]; 15 min): 14.117 % ID/g | uptake LIVER ([2]; 15 min): 10.148 % ID/g | uptake LUNGS ([2]; 15 min): 5.616 % ID/g | uptake MUSCLE ([2]; 15 min): 3.796 % ID/g | uptake SKIN ([2]; 15 min): 2.214 % ID/g | uptake SPLEEN ([2]; 15 min): 8.585 % ID/g | uptake STOMACH ([2]; 15 min): 9.344 % ID/g | uptake THYROID ([2]; 15 min): 5.515 % ID/g | uptake TUMOUR ([2]; 15 min): 6.970 % ID/g | uptake BLOOD ([2]; 30 min): 1.218 % ID/g | uptake BONE ([2]; 30 min): 2.078 % ID/g | uptake BRAIN ([2]; 30 min): 1.997 % ID/g | uptake EYES ([2]; 30 min): 15.976 % ID/g | uptake GIT ([2]; 30 min): 3.855 % ID/g | uptake HEART ([2]; 30 min): 1.902 % ID/g | uptake KIDNEY ([2]; 30 min): 9.595 % ID/g | uptake LIVER ([2]; 30 min): 5.825 % ID/g | uptake LUNGS ([2]; 30 min): 2.922 % ID/g | uptake MUSCLE ([2]; 30 min): 2.240 % ID/g | uptake SKIN ([2]; 30 min): 1.473 % ID/g | uptake SPLEEN ([2]; 30 min): 7.225 % ID/g | uptake STOMACH ([2]; 30 min): 6.639 % ID/g | uptake THYROID ([2]; 30 min): 2.537 % ID/g | uptake TUMOUR ([2]; 30 min): 8.582 % ID/g | uptake BLOOD ([2]; 1 h): 0.619 % ID/g | uptake BONE ([2]; 1 h): 1.368 % ID/g | uptake BRAIN ([2]; 1 h): 1.096 % ID/g | uptake EYES ([2]; 1 h): 18.808 % ID/g | uptake GIT ([2]; 1 h): 2.102 % ID/g | uptake HEART ([2]; 1 h): 0.977 % ID/g | uptake KIDNEY ([2]; 1 h): 3.446 % ID/g | uptake LIVER ([2]; 1 h): 2.813 % ID/g | uptake LUNGS ([2]; 1 h): 1.632 % ID/g | uptake MUSCLE ([2]; 1 h): 1.248 % ID/g | uptake SKIN ([2]; 1 h): 0.766 % ID/g | uptake SPLEEN ([2]; 1 h): 2.393 % ID/g | uptake STOMACH ([2]; 1 h): 3.370 % ID/g | uptake THYROID ([2]; 1 h): 3.327 % ID/g | uptake TUMOUR ([2]; 1 h): 8.376 % ID/g | uptake BLOOD ([2]; 2 h): 0.147 % ID/g | uptake BONE ([2]; 2 h): 0.578 % ID/g | uptake BRAIN ([2]; 2 h): 0.270 % ID/g | uptake EYES ([2]; 2 h): 17.281 % ID/g | uptake GIT ([2]; 2 h): 0.708 % ID/g | uptake HEART ([2]; 2 h): 0.246 % ID/g | uptake KIDNEY ([2]; 2 h): 0.676 % ID/g | uptake LIVER ([2]; 2 h): 0.693 % ID/g | uptake LUNGS ([2]; 2 h): 0.386 % ID/g | uptake MUSCLE ([2]; 2 h): 0.276 % ID/g | uptake SKIN ([2]; 2 h): 0.356 % ID/g | uptake SPLEEN ([2]; 2 h): 1.848 % ID/g | uptake STOMACH ([2]; 2 h): 1.472 % ID/g | uptake THYROID ([2]; 2 h): 0.609 % ID/g | uptake TUMOUR ([2]; 2 h): 9.416 % ID/g | uptake BLOOD ([2]; 3 h): 0.111 % ID/g | uptake BONE ([2]; 3 h): 0.624 % ID/g | uptake BRAIN ([2]; 3 h): 0.150 % ID/g | uptake EYES ([2]; 3 h): 17.276 % ID/g | uptake GIT ([2]; 3 h): 0.541 % ID/g | uptake HEART ([2]; 3 h): 0.166 % ID/g | uptake KIDNEY ([2]; 3 h): 0.394 % ID/g | uptake LIVER ([2]; 3 h): 0.491 % ID/g | uptake LUNGS ([2]; 3 h): 0.253 % ID/g | uptake MUSCLE ([2]; 3 h): 0.201 % ID/g | uptake SKIN ([2]; 3 h): 0.172 % ID/g | uptake SPLEEN ([2]; 3 h): 0.890 % ID/g | uptake STOMACH ([2]; 3 h): 0.828 % ID/g | uptake THYROID ([2]; 3 h): 0.488 % ID/g | uptake TUMOUR ([2]; 3 h): 7.753 % ID/g | uptake BLOOD ([2]; 6 h): 0.020 % ID/g | uptake BONE ([2]; 6 h): 0.515 % ID/g | uptake BRAIN ([2]; 6 h): 0.039 % ID/g | uptake EYES ([2]; 6 h): 15.591 % ID/g | uptake GIT ([2]; 6 h): 0.135 % ID/g | uptake HEART ([2]; 6 h): 0.054 % ID/g | uptake KIDNEY ([2]; 6 h): 0.075 % ID/g | uptake LIVER ([2]; 6 h): 0.123 % ID/g | uptake LUNGS ([2]; 6 h): 0.066 % ID/g | uptake MUSCLE ([2]; 6 h): 0.032 % ID/g | uptake SKIN ([2]; 6 h): 0.041 % ID/g | uptake SPLEEN ([2]; 6 h): 0.470 % ID/g | uptake STOMACH ([2]; 6 h): 0.193 % ID/g | uptake THYROID ([2]; 6 h): 0.168 % ID/g | uptake TUMOUR ([2]; 6 h): 7.747 % ID/g | uptake in melanin containing tissue (tumour and eyes) ([2]; six hour period): high uptake | washout in all other tissue ([2]; six hour period): rapid washout
